3 compounds from patent US4203980A, “Benzylpyrimidine derivatives” (Hoffmann-La Roche Inc., priority 1977, dated 1980) can be followed below.

For this test, the target named is DHFR (E. coli) (Escherichia coli, UniProt P0ABQ4). Put plainly: 50% inhibition of the bacterial dihydrofolic acid reductase (DHFR), E. coli. The format is biochemical. The text has this: The compounds of formula I have antibacterial activity. More specifically, the compounds of formula I inhibit the bacterial dihydrofolic acid reductase (DHFR) and, moreover, potentiate the activity of sulfonamides and other dihydrofolic acid synthetase inhibitors. Exemplary of the sulfonamides which are potentiated by the compounds provided by the present invention are sulfadiazine, sulfadimethoxine, sulfadoxine, sulfamethoxazole, sulfisoxazole, sulfamoxole, 3-sulfanilamido-4,5-dimethylisoxazole, sulfalene, sulfamerazine, sulfameter, sulfamethazine and 6-methoxy-4-sulfanilamido-pyrimidine. […] Quantitatively, however, compared with known compounds, the compounds of formula I of the present invention are characterized by lower 50% inhibitory concentrations of the bacterial DHFR, for example, in the case of E. coli, and by substantially higher Q-values, that is 50% inhibition of the DHFR in the case of rats/50% inhibition of the DHFR in the case of E. coli, which represents a measurement of the selectivity of the inhibition of the bacterial DHFR.
With `C=C(C)c1c(OC)cc(Cc2cnc(N)nc2N)cc1OC` [Compound 2, 2,4-diamino-5-(4-isopropenyl-3,5-dimethoxybenzyl)-pyrimidine], the IC50 stood at 3.4 nM.
The result for `C=C(C)c1c(OC)cc(Cc2cnc(N)nc2N)cc1OCC` [Compound 3, 2,4-diamino-5-(3-ethoxy-4-isopropenyl-5-methoxybenzyl)-pyrimidine] reads 3.2 nM; that for `C=C(C)c1c(OCC)cc(Cc2cnc(N)nc2N)cc1OCC` [Compound 1, 2,4-diamino-5-(3,5-diethoxy-4-isopropenylbenzyl)-pyrimidine], 2.2 nM.
